Where two headings read alike, the source gives them in different places.
Experiments:
hTRPA1 [1] = molecular target: T1, hTRPA1 (Homo sapiens, UniProt O75762); experiment: FLIPR calcium assay, wild type hTRPA1; type: cell-based
hTRPA1-dTM5 [2] = molecular target: T2, hTRPA1-dTM5 (Homo sapiens / Drosophila melanogaster, UniProt O75762+Q7Z020); type: cell-based
mTRPA1 [3] = molecular target: T3, mTRPA1 (Mus musculus, UniProt Q8BLA8); conditions: read-out: IC50, inhibition of MO-induced mTRPA1 activity
mTRPA1-S876V/T877L = mTRPA1-S876V/T877L (Mus musculus, UniProt Q8BLA8, S876V/T877L); type: cell-based
mTRPA1 [4] = molecular target: T3, mTRPA1; experiment: Whole-cell patch-clamp, HEK293T cells expressing mTRPA1; type: cell-based; conditions: 100 μM MO in the presence of 500 μM menthol; n = 7
hTRPA1 [5] = molecular target: T1, hTRPA1; experiment: Whole-cell patch-clamp, HEK293T cells expressing hTRPA1; type: cell-based; conditions: 250 μM menthol; at +120 mV; n = 11
mTRPA1 [6] = molecular target: T3, mTRPA1; experiment: cell-based
fugu-TRPA1 = experiment: FLIPR calcium assay, fugu-TRPA1; type: cell-based, Takifugu
hTRPA1-dTM5 [7] = molecular target: T2, hTRPA1-dTM5; experiment: Whole-cell patch-clamp, HEK293T cells expressing hTRPA1-dTM5; type: cell-based; conditions: 250 μM menthol
mTRPA1-hTM5-6 = mTRPA1-hTM5-6 (Mus musculus, UniProt Q8BLA8, A900P/A924S/A946S/D923E/F870L/F897L/F930L/G878V/G942A/I945V/L908I/L929Y/M949I/T903S/T940S/V893I/Y936H); experiment: FLIPR calcium assay, chimera mTRPA1-hTM5-6; type: cell-based, mouse / human
mosquito-TRPA1 = experiment: FLIPR calcium assay, mosquito-TRPA1; type: cell-based, Anopheles gambiae
hTRPA1-V875G = hTRPA1-V875G (Homo sapiens, UniProt O75762, V875G); experiment: FLIPR calcium assay, mutant hTRPA1-V875G; type: cell-based
mTRPA1-dTM5 = experiment: Whole-cell patch-clamp, HEK293T cells expressing mTRPA1-dTM5; type: cell-based, mouse / Drosophila melanogaster; conditions: 50 μM menthol
hTRPA1-mTM5-6 = hTRPA1-mTM5-6 (Homo sapiens, UniProt O75762, A939G/E920D/H933Y/I890V/I905L/I946M/L867F/L894F/L927F/P897A/S900T/S921A/S937T/S943A/V875G/V942I/Y926L); experiment: FLIPR calcium assay, chimera hTRPA1-mTM5-6; type: cell-based, human / mouse
hTRPA1-FGFATLIAM = hTRPA1-FGFATLIAM (Homo sapiens, UniProt O75762, I905L/I946M/L867F/L894F/P897A/S900T/S943A/V875G/V942I); experiment: FLIPR calcium assay, mutant hTRPA1-[…]; type: cell-based
dTRPA1-mN = dTRPA1-mN (Mus musculus / Drosophila melanogaster, UniProt Q7Z020+Q8BLA8); type: cell-based
dTRPA1 = molecular target: T4, dTRPA1 (Drosophila melanogaster, UniProt Q7Z020); experiment: Whole-cell patch-clamp, HEK293T cells expressing dTRPA1; type: cell-based; conditions: at +120 mV
T4 sequence (Q7Z020 1-1197): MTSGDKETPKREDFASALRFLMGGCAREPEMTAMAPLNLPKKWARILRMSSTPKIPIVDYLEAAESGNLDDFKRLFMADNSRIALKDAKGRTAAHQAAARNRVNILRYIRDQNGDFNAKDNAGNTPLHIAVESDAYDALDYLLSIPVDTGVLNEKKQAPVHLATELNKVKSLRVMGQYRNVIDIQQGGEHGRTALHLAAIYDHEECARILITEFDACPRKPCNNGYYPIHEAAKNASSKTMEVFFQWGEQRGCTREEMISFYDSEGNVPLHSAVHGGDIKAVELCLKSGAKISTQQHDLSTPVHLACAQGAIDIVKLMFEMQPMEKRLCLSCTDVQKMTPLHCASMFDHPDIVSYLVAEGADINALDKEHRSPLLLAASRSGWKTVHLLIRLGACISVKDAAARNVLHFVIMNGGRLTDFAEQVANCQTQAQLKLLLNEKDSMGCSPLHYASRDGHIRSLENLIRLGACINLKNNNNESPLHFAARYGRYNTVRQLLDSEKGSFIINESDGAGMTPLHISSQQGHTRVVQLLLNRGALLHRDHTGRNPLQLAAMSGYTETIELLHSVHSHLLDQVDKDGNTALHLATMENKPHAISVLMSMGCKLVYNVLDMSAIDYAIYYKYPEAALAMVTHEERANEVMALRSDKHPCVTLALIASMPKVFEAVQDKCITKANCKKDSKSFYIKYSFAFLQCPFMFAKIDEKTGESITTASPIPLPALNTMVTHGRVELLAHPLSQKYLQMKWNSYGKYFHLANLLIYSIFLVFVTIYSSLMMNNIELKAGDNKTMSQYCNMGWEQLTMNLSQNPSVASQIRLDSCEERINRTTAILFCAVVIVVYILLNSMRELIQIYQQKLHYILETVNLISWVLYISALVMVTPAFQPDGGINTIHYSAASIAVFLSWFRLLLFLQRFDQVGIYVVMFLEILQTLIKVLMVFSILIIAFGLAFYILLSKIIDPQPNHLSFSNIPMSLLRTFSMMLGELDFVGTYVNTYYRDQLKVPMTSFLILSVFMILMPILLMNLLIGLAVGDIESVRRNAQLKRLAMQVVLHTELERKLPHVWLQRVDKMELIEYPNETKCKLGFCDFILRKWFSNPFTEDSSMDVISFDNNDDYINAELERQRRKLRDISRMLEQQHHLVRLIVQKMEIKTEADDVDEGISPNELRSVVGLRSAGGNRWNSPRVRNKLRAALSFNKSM

T1 sequence (O75762 whole entry): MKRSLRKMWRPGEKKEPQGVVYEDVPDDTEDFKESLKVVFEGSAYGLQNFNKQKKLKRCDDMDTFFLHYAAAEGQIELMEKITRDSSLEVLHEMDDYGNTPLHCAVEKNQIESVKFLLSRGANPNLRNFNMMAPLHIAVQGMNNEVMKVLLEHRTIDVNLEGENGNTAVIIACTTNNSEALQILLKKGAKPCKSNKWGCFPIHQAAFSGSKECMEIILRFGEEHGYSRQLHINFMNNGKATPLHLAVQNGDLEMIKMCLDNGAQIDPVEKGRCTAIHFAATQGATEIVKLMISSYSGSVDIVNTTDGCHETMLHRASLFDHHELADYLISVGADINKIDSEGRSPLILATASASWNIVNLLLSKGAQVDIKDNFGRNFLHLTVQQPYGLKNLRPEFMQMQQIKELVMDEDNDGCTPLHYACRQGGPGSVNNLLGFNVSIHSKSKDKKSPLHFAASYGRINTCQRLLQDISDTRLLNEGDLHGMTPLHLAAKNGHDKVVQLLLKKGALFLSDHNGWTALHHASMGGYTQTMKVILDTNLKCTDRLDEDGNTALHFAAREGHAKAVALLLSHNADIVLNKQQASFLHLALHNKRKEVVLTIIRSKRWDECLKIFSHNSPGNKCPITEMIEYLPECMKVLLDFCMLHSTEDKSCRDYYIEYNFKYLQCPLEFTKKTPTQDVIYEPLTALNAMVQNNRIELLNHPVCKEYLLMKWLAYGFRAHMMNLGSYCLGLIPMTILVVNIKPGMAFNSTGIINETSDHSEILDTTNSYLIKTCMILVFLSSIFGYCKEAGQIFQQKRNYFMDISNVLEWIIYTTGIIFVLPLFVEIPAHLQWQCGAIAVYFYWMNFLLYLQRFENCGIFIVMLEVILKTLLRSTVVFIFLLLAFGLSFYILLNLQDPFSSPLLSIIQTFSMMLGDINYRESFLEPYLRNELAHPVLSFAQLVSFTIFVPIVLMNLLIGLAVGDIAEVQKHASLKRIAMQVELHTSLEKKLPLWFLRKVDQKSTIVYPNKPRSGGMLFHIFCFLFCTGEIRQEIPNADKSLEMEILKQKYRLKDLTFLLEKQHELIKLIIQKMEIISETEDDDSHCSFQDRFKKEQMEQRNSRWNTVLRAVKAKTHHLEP
T3 sequence (Q8BLA8 whole entry): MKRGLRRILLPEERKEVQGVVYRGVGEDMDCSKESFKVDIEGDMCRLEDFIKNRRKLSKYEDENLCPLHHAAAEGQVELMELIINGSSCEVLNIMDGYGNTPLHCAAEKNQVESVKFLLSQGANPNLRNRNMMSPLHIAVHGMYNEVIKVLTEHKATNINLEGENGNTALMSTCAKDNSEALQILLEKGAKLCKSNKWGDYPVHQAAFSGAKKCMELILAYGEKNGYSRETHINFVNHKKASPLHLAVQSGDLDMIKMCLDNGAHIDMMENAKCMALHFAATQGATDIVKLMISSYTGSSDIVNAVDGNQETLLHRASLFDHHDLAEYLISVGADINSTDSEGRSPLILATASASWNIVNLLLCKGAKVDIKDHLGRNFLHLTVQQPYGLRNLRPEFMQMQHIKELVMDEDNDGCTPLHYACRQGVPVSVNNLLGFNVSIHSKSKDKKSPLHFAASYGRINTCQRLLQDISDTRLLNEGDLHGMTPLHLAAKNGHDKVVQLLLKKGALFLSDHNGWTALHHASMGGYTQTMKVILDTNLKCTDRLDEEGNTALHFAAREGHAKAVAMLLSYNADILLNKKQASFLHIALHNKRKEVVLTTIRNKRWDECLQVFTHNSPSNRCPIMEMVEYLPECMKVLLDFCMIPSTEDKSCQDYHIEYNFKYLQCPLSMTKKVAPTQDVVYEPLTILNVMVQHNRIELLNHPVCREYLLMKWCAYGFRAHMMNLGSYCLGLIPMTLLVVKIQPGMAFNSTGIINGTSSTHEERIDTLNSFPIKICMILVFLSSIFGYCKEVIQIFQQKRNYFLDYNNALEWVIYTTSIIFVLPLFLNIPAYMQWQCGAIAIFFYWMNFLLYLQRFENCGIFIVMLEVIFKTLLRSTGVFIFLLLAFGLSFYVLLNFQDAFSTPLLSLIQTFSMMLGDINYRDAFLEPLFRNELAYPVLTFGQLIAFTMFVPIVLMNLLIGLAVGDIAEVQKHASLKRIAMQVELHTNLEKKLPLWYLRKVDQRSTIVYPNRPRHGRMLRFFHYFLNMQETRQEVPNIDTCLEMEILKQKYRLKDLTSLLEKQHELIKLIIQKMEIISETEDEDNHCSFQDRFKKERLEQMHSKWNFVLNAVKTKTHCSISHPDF
Chain of mTRPA1-hTM5-6 (Q8BLA8 1-1125 with the stated changes): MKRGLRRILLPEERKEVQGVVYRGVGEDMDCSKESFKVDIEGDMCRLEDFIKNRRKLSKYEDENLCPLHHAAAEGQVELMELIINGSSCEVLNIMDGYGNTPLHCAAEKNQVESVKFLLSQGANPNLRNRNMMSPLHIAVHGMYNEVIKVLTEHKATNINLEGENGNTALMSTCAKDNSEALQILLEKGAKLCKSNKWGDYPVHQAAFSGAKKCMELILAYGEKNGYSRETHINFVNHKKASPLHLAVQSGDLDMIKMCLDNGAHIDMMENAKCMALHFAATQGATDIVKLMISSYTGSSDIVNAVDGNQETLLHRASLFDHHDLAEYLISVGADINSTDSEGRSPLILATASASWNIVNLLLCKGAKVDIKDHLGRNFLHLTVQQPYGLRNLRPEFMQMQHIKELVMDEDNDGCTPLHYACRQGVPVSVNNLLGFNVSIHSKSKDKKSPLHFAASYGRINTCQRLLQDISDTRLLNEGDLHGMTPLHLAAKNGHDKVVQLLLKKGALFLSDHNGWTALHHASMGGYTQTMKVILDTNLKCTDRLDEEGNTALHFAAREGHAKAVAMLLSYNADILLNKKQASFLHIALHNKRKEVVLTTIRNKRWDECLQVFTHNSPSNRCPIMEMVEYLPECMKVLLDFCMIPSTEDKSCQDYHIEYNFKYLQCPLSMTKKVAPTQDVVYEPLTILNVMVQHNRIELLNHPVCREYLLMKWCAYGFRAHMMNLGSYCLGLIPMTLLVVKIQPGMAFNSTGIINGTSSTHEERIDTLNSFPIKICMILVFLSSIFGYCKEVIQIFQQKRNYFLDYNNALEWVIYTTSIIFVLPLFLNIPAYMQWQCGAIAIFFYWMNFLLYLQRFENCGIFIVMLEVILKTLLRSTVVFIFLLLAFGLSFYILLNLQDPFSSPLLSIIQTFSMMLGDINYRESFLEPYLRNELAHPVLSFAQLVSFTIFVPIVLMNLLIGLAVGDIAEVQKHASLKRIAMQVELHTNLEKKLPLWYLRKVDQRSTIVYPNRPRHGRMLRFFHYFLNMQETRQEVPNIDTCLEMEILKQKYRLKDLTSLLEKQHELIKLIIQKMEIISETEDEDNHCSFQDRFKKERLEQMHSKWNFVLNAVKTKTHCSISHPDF
Chain of hTRPA1-V875G (O75762 whole entry V875G): as the sequence (O75762 whole entry) above, with V875G counted along it
Chain of mTRPA1-S876V/T877L (Q8BLA8 whole entry S876V/T877L): as the sequence (Q8BLA8 whole entry) above, with S876V, T877L counted along it
Chain of hTRPA1-mTM5-6 (O75762 1-1119 with the stated changes): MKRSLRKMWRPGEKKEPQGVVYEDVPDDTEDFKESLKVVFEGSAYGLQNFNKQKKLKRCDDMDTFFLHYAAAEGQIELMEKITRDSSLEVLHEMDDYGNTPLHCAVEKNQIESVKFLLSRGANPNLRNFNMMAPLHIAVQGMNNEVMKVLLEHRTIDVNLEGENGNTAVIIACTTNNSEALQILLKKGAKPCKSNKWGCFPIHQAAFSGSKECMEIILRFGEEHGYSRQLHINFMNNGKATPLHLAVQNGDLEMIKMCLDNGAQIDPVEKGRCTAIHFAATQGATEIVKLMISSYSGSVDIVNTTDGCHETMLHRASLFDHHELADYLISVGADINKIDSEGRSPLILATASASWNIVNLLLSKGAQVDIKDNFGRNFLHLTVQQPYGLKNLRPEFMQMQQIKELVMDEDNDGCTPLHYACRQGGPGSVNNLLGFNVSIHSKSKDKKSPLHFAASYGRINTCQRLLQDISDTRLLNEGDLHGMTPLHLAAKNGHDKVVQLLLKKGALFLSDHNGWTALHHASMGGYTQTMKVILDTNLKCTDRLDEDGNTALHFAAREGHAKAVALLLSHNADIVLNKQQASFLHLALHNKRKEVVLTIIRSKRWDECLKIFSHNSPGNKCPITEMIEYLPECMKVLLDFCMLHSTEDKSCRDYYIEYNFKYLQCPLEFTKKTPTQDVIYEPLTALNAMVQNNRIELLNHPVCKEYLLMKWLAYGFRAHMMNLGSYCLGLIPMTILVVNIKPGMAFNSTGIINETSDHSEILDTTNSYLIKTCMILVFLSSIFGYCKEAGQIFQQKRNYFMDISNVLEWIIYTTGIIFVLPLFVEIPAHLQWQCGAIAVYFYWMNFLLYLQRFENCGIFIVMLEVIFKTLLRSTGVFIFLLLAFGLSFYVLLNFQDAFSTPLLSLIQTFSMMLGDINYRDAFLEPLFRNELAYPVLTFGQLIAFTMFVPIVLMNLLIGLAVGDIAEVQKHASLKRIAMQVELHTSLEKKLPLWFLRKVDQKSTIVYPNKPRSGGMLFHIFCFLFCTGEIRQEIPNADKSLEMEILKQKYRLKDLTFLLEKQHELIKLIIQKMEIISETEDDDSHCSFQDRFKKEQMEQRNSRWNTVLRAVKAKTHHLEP
Chain of hTRPA1-FGFATLIAM (O75762 whole entry L867F/V875G/L894F/P897A/S900T/I905L/V942I/S943A/I946M): as the sequence (O75762 1-1119 with the stated changes) above, with V890I, D920E, A921S, L926Y, F927L, Y933H, T937S, G939A counted along it

CC(C)c1ccc(NC(=O)Cn2cnc3c2c(=O)n(C)c(=O)n3C)cc1 [HC030031, 2-(1,3-dimethyl-2,6-dioxo-1,2,3,6-tetrahydro-7H-purin-7-yl)-N-(4-isopropylphenyl)acetamide]
IC50 (hTRPA1 [1]): 12.9 ± 2.67 µM

CC(=NO)/C(C)=C\c1ccc(Cl)cc1 [AP18, (Z)-4-(4-chlorophynyl)-3-methylbut-3-en-2-oxime]
IC50 (hTRPA1 [1]; read-out: hTRPA1 IC50 (Inhibition)): 0.6 ± 0.17 µM | hTRPA1-dTM5 IC50 (Inhibition) (hTRPA1-dTM5 [2]): No inhibition | IC50 (mTRPA1 [3]): 0.69 ± 0.09 µM | inhibitory effect on MO-induced mTRPA1-S876V/T877L activity (mTRPA1-S876V/T877L): totally abolished

Cl.Cl.Cl.Cl.Cl.Cl.N.N.N.N.N.N.N.N.N.N.N.N.N.N.[O-2].[O-2].[Ru+3].[Ru+3].[Ru+4] [Ruthenium Red, ruthenium red]
IC50 (hTRPA1-dTM5 [2]; read-out: hTRPA1-dTM5 IC50 (Inhibition)): 0.48 ± 0.03 µM

CC(C)=CCC/C(C)=C/CC/C(C)=C/CSc1ccccc1C(=O)O [FTS, Farnesyl thiosalicylic acid]
EC50 (hTRPA1 [1]; read-out: hTRPA1 EC50 (Activation)): 7.3 ± 1.1 µM | hTRPA1-dTM5 EC50 (Activation) (hTRPA1-dTM5 [2]): No activation

CC(C)[C@@H]1CC[C@@H](C)C[C@H]1O [Menthol, (-)-Menthol]
MO-induced mTRPA1 currents at +120 mV, normalized to currents elicited at +180 mV (mTRPA1 [4]): 16 ± 7% | whole cell current density evoked in hTRPA1 cells (hTRPA1 [5]): 59.0 ± 10.2 pA/pF | IC50 (mTRPA1 [6]): 73.4 ± 11.5 µM | menthol sensitivity of fugu-TRPA1 (fugu-TRPA1): not sensitive | activation of hTRPA1-dTM5 current (hTRPA1-dTM5 [7]): completely abolished | EC50 (mTRPA1-hTM5-6): 43.9 ± 6.4 µM | inhibition of MO-evoked mTRPA1-hTM5-6 activity (mTRPA1-hTM5-6; FLIPR, 100 μM MO): not significantly inhibited | menthol sensitivity of mosquito-TRPA1 (mosquito-TRPA1): not sensitive | IC50 (hTRPA1-V875G): 119 ± 16.5 µM | activation of mTRPA1-dTM5 current (mTRPA1-dTM5): completely abolished | block of the response of hTRPA1 to 100 μM MO (hTRPA1 [1]): did not block | hTRPA1-dTM5 EC50 (Activation) (hTRPA1-dTM5 [2]; FLIPR, responses normalized to 100 μM MO): No activation | IC50 (hTRPA1-mTM5-6): 71 ± 16.5 µM | IC50 (hTRPA1-FGFATLIAM): 36.6 ± 9 µM | menthol effect at dTRPA1-mN (dTRPA1-mN): ineffective | change in evoked current in dTRPA1 cells (dTRPA1; 25-100 μM menthol, n = 7): -0.53 ± 0.3 pA/pF | activation of dTRPA1 current (dTRPA1; 250-500 μM menthol, 3 min of recording): ineffective

Source: publication PMC2678945 (The Journal of neuroscience : the official journal of the …, 2008)
